This note sets out measurements from ChEMBL document CHEMBL5214910, “Rational Design of Dipicolylamine-Containing Carbazole Amphiphiles Combined with Zn2+ as Potent Broad-Spectrum Antibacterial Agents with a Membrane-Disruptive Mechanism” (J Med Chem, 2021).

Structures are written as SMILES. ≈ marks a conversion by molar mass, not a printed value.

The term MIC denotes the least concentration at which growth counts as inhibited. Usually HC50 stands for the concentration giving 50% haemolysis.

Series [1] relates to Acinetobacter baumannii. Description: Antibacterial activity against Acinetobacter baumannii ATCC 17978 assessed as inhIbition of bacterial growth incubated for 24 hrs by Muller hinton broth based dilution assay. Format: functional.
Series [2] deals with Staphylococcus aureus. The series is described as follows: Antibacterial activity against Staphylococcus aureus ATCC 29213 assessed as inhibition of bacterial growth incubated for 24 hrs by Muller hinton broth based dilution assay. The format is functional.
For series [3], the system named is Staphylococcus aureus. The series is described as follows: Antibacterial activity against Methicillin-resistant Staphylococcus aureus N315 assessed as inhibition of bacterial growth incubated for 24 hrs by Muller hinton broth based dilution assay. Format: functional.
The subject of series [4] is Staphylococcus aureus. Description: Antibacterial activity against Methicillin-resistant Staphylococcus aureus NCTC10442 assessed as inhibition of bacterial growth incubated for 24 hrs by Muller hinton broth based dilution assay. Format: functional.
For series [5], the system named is Escherichia coli. The series is described as follows: Antibacterial activity Escherichia coli ATCC 25922 assessed as inhibition of bacterial growth incubated for 24 hrs by Muller hinton broth based dilution assay. Format: functional.
Series [6] has as its system Pseudomonas aeruginosa. Description: Antibacterial activity Pseudomonas aeruginosa ATCC 9027 assessed as inhibition of bacterial growth incubated for 24 hrs by Muller hinton broth based dilution assay. Format: functional.
For series [7], the system named is Acinetobacter baumannii. The series is described as follows: Antibacterial activity against Acinetobacter baumannii R2889 assessed as inhIbition of bacterial growth incubated for 24 hrs by Muller hinton broth based dilution assay. Format: functional.
The nature of series [8]: Hemolytic activity in rabbit RBC incubated for 1 hrs by fluorescence based microplate reader assay. Format: toxicity, cell-based, Oryctolagus cuniculus, Erythrocyte. Particulars: rabbit red blood cells (erythrocytes).
The subject of series [9] is Staphylococcus aureus. Description: Antibacterial activity against Staphylococcus aureus ATCC 29213 assessed as inhibition of bacterial growth incubated for 24 hrs in the presence of 12.5 ug/mL Zn2+ by Muller hinton broth based dilution assay. Format: functional.
Series [10] relates to Staphylococcus aureus. Description: Antibacterial activity against Methicillin-resistant Staphylococcus aureus N315 assessed as inhibition of bacterial growth incubated for 24 hrs in the presence of 12.5 ug/mL Zn2+ by Muller hinton broth based dilution assay. The format is functional.
In series [11] the test system is Staphylococcus aureus. The series is described as follows: Antibacterial activity against Methicillin-resistant Staphylococcus aureus NCTC10442 assessed as inhibition of bacterial growth incubated for 24 hrs in the presence of 12.5 ug/mL Zn2+ by Muller hinton broth based dilution assay. Format: functional.
In series [12] the test system is Escherichia coli. The series is described as follows: Antibacterial activity Escherichia coli ATCC 25922 assessed as inhibition of bacterial growth incubated for 24 hrs in the presence of 12.5 ug/mL Zn2+ by Muller hinton broth based dilution assay. The format is functional.
The test system of series [13] is Pseudomonas aeruginosa. Description: Antibacterial activity Pseudomonas aeruginosa ATCC 9027 assessed as inhibition of bacterial growth incubated for 24 hrs in the presence of 12.5 ug/mL Zn2+ by Muller hinton broth based dilution assay. The format is functional.
The test system of series [14] is Acinetobacter baumannii. The series is described as follows: Antibacterial activity against Acinetobacter baumannii ATCC 17978 assessed as inhIbition of bacterial growth incubated for 24 hrs in the presence of 12.5 ug/mL Zn2+ by Muller hinton broth based dilution assay. The format is functional.
Series [15] has as its system Acinetobacter baumannii. Description: Antibacterial activity against Acinetobacter baumannii R2889 assessed as inhIbition of bacterial growth incubated for 24 hrs in the presence of 12.5 ug/mL Zn2+ by Muller hinton broth based dilution assay. Format: functional.
Series [16] can be described thus: Hemolytic activity in rabbit RBC incubated for 1 hrs in the presence of 12.5 ug/mL Zn2+ by fluorescence based microplate reader assay. Format: toxicity, cell-based, Oryctolagus cuniculus, Erythrocyte. Particulars: rabbit red blood cells (erythrocytes).
For series [17], the system named is Staphylococcus aureus. The series is described as follows: Induction of drug resistance in Staphylococcus aureus ATCC 29213 assessed as fold change in MIC incubated for 17 days. Format: functional. Particulars: time 17.0 day.

For `CCCn1c2ccccc2c2c(OCC(O)CN(Cc3ccccn3)Cc3ccccn3)cccc21` (configuration not stated), the MIC in the series on Acinetobacter baumannii [1] was 6.25 µg/mL (≈ 13 µM); with Staphylococcus aureus [2], 3.12 µg/mL (≈ 6.5 µM); with Staphylococcus aureus [3], 1.56 µg/mL (≈ 3.25 µM); in the series with Staphylococcus aureus [4] it was 3.12 µg/mL (≈ 6.5 µM); in the series on Escherichia coli [5], 12.5 µg/mL (≈ 26 µM); in the series on Pseudomonas aeruginosa [6], greater than 50 µg/mL. Besides, the minimal inhibitory concentration (MIC) in the series on Acinetobacter baumannii [7] stood at 6.25 µg/mL (≈ 13 µM); with Staphylococcus aureus [9], 0.78 µg/mL; in the series with Staphylococcus aureus [10], 0.78 µg/mL; in the series on Staphylococcus aureus [11], 1.56 µg/mL; in the series with Escherichia coli [12] it was 6.25 µg/mL; in the series with Pseudomonas aeruginosa [13], 6.25 µg/mL. Further, the values for the MIC in the series on Acinetobacter baumannii [14] and with Acinetobacter baumannii [15] were 3.12 µg/mL and 6.25 µg/mL, respectively. Also, the HC50 at 1 h in series [8] and in series [16] was greater than 200 µg/mL each time.
Consider `CCCCCn1c2ccccc2c2c(OCC(O)CN(Cc3ccccn3)Cc3ccccn3)cccc21` (configuration not stated), for which the MIC is 3.12 µg/mL (≈ 6.14 µM) with Acinetobacter baumannii [1]; 1.56 µg/mL (≈ 3.07 µM) in the series with Staphylococcus aureus [2]; 1.56 µg/mL (≈ 3.07 µM) in the series on Staphylococcus aureus [3]; 1.56 µg/mL (≈ 3.07 µM) in the series with Staphylococcus aureus [4]; 6.25 µg/mL (≈ 12.3 µM) in the series with Escherichia coli [5]; greater than 50 µg/mL with Pseudomonas aeruginosa [6]. Further, the minimum inhibitory concentration (MIC) amounted to 3.12 µg/mL (≈ 6.14 µM) in the series on Acinetobacter baumannii [7]; 1.56 µg/mL with Staphylococcus aureus [9]; 0.78 µg/mL with Staphylococcus aureus [10]; 0.78 µg/mL with Staphylococcus aureus [11]; 1.56 µg/mL with Escherichia coli [12]; 6.25 µg/mL in the series on Pseudomonas aeruginosa [13]. The MIC with Acinetobacter baumannii [14] and in the series with Acinetobacter baumannii [15] was 3.12 µg/mL in each case. Also, the HC50 at 1 h in series [8] and in series [16] was greater than 200 µg/mL in each case.
On to `CCCCCCCn1c2ccccc2c2c(OCC(O)CN(Cc3ccccn3)Cc3ccccn3)cccc21` (configuration not stated), for which the minimal inhibitory concentration (MIC) in the series on Acinetobacter baumannii [1] was greater than 50 µg/mL; with Staphylococcus aureus [2] it was 1.56 µg/mL (≈ 2.91 µM); in the series with Staphylococcus aureus [3], 1.56 µg/mL (≈ 2.91 µM); in the series on Staphylococcus aureus [4], 1.56 µg/mL (≈ 2.91 µM); in the series with Escherichia coli [5], greater than 50 µg/mL; in the series on Pseudomonas aeruginosa [6], greater than 50 µg/mL. Also, the MIC in the series on Acinetobacter baumannii [7] was 25 µg/mL (≈ 46.6 µM); in the series with Staphylococcus aureus [9], 1.56 µg/mL; with Staphylococcus aureus [10], 0.78 µg/mL; in the series on Staphylococcus aureus [11] it was 1.56 µg/mL; in the series on Escherichia coli [12], 3.12 µg/mL; with Pseudomonas aeruginosa [13], greater than 50 µg/mL. Further, the minimum inhibitory concentration (MIC) is greater than 50 µg/mL in the series with Acinetobacter baumannii [14] and 25 µg/mL in the series on Acinetobacter baumannii [15]. Also, the HC50 at 1 h in [8] and in series [16] was greater than 200 µg/mL in each case.
Consider `OC(COc1cccc2[nH]c3ccccc3c12)CN(Cc1ccccn1)Cc1ccccn1` (configuration not stated), for which the MIC with Acinetobacter baumannii [1] was 50 µg/mL (≈ 114 µM); with Staphylococcus aureus [2] it was 25 µg/mL (≈ 57 µM); in the series on Staphylococcus aureus [3] it was 25 µg/mL (≈ 57 µM); with Staphylococcus aureus [4] it was 25 µg/mL (≈ 57 µM); in the series with Escherichia coli [5], greater than 50 µg/mL; with Pseudomonas aeruginosa [6], greater than 50 µg/mL. The MIC is greater than 50 µg/mL with Acinetobacter baumannii [7]; 6.25 µg/mL in the series with Staphylococcus aureus [9]; 6.25 µg/mL in the series on Staphylococcus aureus [10]; 12.5 µg/mL in the series on Staphylococcus aureus [11]; greater than 50 µg/mL with Escherichia coli [12]; 12.5 µg/mL in the series with Pseudomonas aeruginosa [13]. Further, the minimal inhibitory concentration (MIC) was 50 µg/mL in the series on Acinetobacter baumannii [14] and greater than 50 µg/mL in the series with Acinetobacter baumannii [15]. For the same compound, the HC50 at 1 h in series [8] and in [16] was greater than 200 µg/mL each time.
Take `CCn1cc(C(=O)O)c(=O)c2cc(F)c(N3CCNCC3)cc21`: in the series on Staphylococcus aureus [17], the fold change (FC) is 32.
Take `CCCCCCCCCn1c2ccccc2c2c(OCC(O)CN(Cc3ccccn3)Cc3ccccn3)cccc21` (configuration not stated): the MIC in the series on Acinetobacter baumannii [1] is greater than 50 µg/mL; in the series on Staphylococcus aureus [2], 3.12 µg/mL (≈ 5.53 µM); in the series on Staphylococcus aureus [3], 0.78 µg/mL (≈ 1.38 µM); in the series on Staphylococcus aureus [4] it was 6.25 µg/mL (≈ 11.1 µM); in the series with Escherichia coli [5] it was greater than 50 µg/mL; with Pseudomonas aeruginosa [6], greater than 50 µg/mL. Also, the minimum inhibitory concentration (MIC) in the series on Acinetobacter baumannii [7] is greater than 50 µg/mL; in the series with Staphylococcus aureus [9], 3.12 µg/mL; in the series with Staphylococcus aureus [10], 0.78 µg/mL; with Staphylococcus aureus [11], 6.25 µg/mL; in the series on Escherichia coli [12], greater than 50 µg/mL; with Pseudomonas aeruginosa [13], greater than 50 µg/mL. The figures for the minimal inhibitory concentration (MIC) with Acinetobacter baumannii [14] and in the series with Acinetobacter baumannii [15] were 12.5 µg/mL and greater than 50 µg/mL, respectively. Also, the 50% haemolytic concentration (HC50) at 1 h in [8] and in series [16] was greater than 200 µg/mL throughout.
Regarding `CC(C)=CCn1c2ccccc2c2c(OCC(O)CNCc3ccccn3)cccc21` (configuration not stated), the MIC with Acinetobacter baumannii [1] was greater than 50 µg/mL; in the series with Staphylococcus aureus [2], 6.25 µg/mL (≈ 15 µM); in the series with Staphylococcus aureus [3] it was 6.25 µg/mL (≈ 15 µM); in the series on Staphylococcus aureus [4], 6.25 µg/mL (≈ 15 µM); in the series on Escherichia coli [5], 50 µg/mL (≈ 120 µM); in the series on Pseudomonas aeruginosa [6] it was greater than 50 µg/mL. Besides, the MIC with Acinetobacter baumannii [7] is greater than 50 µg/mL; in the series with Staphylococcus aureus [9], 3.12 µg/mL; in the series on Staphylococcus aureus [10] it was 3.12 µg/mL; with Staphylococcus aureus [11] it was 6.25 µg/mL; in the series with Escherichia coli [12], greater than 50 µg/mL; with Pseudomonas aeruginosa [13], greater than 50 µg/mL. The MIC in the series with Acinetobacter baumannii [14] and in the series on Acinetobacter baumannii [15] was greater than 50 µg/mL each time. Also, the HC50 at 1 h in series [8] and in [16] was greater than 200 µg/mL each time.
